# Measurements reported in patent US4593104A, “2-halo-N-(azole-1-yl-methyl)-substituted acetanilides” (BASF Aktiengesellschaft, priority 1976, dated 1986).
# What was measured:
# [1] = tested on: Arach. hypog.; assay: tolerance by various oil crops in the greenhouse (Table 8), % damage; format: in vivo, Arachis hypogaea
# Source text: (§1) The vessels employed were plastic flowerpots having a volume of 300 cm^3; the substrate was a sandy loam containing about 1.5% humus. The seeds of the test plants (see Table 1) were sown shallow, and separated according to species. In the case of Cyperus esculentus, pregerminated tubers were planted. In the preemergence treatment, the active ingredients were then immediately applied to the surface of the soil. They were suspended or emulsified in water as the vehicle, and sprayed through atomizing nozzles. After the agents had been applied, the vessels were lightly sprinkler-irrigated to set germination and growth going, and to activate the chemical agents. The vessels were then covered with transparent plastic hoods until the plants had taken root. This cover ensured uniform germination of the test plants (to the extent that this was not impaired by the chemicals), and prevented readily volatile substances from evaporating.
# (§2) For postemergence treatment, the plants were first grown to a height of from 3 to 10 cm, depending on their habit, before treated. Hoods were not placed on the pots. The experiments were set up in the greenhouse, hotter areas (25° to 40° C.) being preferred for heat-loving species, and 15° to 30° C. for plants from moderate climates. The experiments were carried out for from 4 to 6 weeks. During this period the plants were tended and their reaction to the various treatments was assessed. The following tables contain the substances investigated, the application rates in kg/ha of active ingredient, and the test plant species. Assessments were made on a 0 to 100 scale, 0 denoting no damage or normal emergence, and 100 denoting no emergence or complete destruction of at least the visible plant parts.
# [2] = tested on: Carth. tinct.; assay: as above; format: in vivo, Carthamus tincotius
# Source text: as §1
# For postemergence treatment, the plants were first grown to a height of from 3 to 10 cm, depending on their habit, before treated. Hoods were not placed on the pots. The experiments were set up in the greenhouse, hotter areas (25° to 40° C.) being preferred for heat-loving species, and 15° to 30° C. for plants from moderate climates. […] During this period the plants were tended and their reaction to the various treatments was assessed. […]
# [3] = tested on: Brassica napus; assay: as above; format: in vivo
# Source text: as §1, §2
# [4] = tested on: Glyc. max; assay: as above; format: in vivo, Glycine max; details: varieties: Dare, Lee 68, SRF 450
# Source text: as §1, §2
# [5] = tested on: Seta. spp.; assay: herbicidal action in the greenhouse (Table 8), % damage; format: in vivo
# Source text: as §1, §2
# [6] = tested on: Solan. nigrum.; assay: as above; format: in vivo
# Source text: as §1, §2
# [7] = tested on: Amar. retro.; assay: as above; format: in vivo
# Source text: as §1, §2
# [8] = tested on: Zea mays; assay: preemergence treatment in the greenhouse, % damage; format: in vivo; details: 0.5 kg/ha
# Summary of the method: (§3)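 Greenhouse herbicide test at rates in kg/ha a.i. Pre-em soil spray right after sowing, then irrigation and hooding; post-em on 3–10 cm plants. Rated 0–100 over 4–6 weeks.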
# [9] = tested on: Matric. spp.; assay: preemergence treatment in the greenhouse, % damage; format: in vivo; details: 0.5 kg/ha
# Summary of the method: as §3
# [10] = tested on: Bromus spp.; assay: preemergence treatment in the greenhouse, % damage; format: in vivo; details: 0.5 kg/ha
# Summary of the method: as §3
# [11] = tested on: Alopec. myosur.; assay: preemergence treatment in the greenhouse, % damage; format: in vivo; details: 0.5 kg/ha
# Summary of the method: as §3
# [12] = tested on: Brassica napus; assay: preemergence treatment in the greenhouse, % damage; format: in vivo; details: 0.5 kg/ha
# Summary of the method: as §3
# [13] = tested on: Cyp. diff.; assay: preemergence treatment in the greenhouse, % damage; format: in vivo; details: 0.5 kg/ha
# Summary of the method: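 Damage rated on a 0 (none) to 100 (no emergence or total destruction) scale over 4–6 weeks in the greenhouse (15–30 °C or 25–40 °C by species), at rates in kg/ha a.i. Pre-emergence sprays went onto sandy-loam surface right after sowing, pots then watered and hooded; post-emergence sprays hit unhooded plants at 3–10 cm.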
# [14] = tested on: Setaria spp.; assay: preemergence treatment in the greenhouse, % damage; format: in vivo; details: 0.5 kg/ha
# Summary of the method: as §3
# [15] = tested on: Solanum nigrum; assay: preemergence treatment in the greenhouse, % damage; format: in vivo; details: 0.5 kg/ha
# Summary of the method: as §3
# [16] = tested on: Echin. c.g.; assay: preemergence treatment in the greenhouse, % damage; format: in vivo; details: 0.5 kg/ha
# Summary of the method: as §3
# [17] = tested on: Arach. hypog.; assay: preemergence treatment in the greenhouse, % damage; format: in vivo, Arachis hypogaea; details: 0.5 kg/ha
# Source text: as §1, §2
structure (smiles),measurement,setting,value
Cc1cccc(C)c1N(Cn1cncn1)C(=O)CCl [Compound 127],% damage,"[1]; 0,5 kg/ha",0%
same,% damage,"[1]; 1,0 kg/ha",0%
same,% damage,"[1]; 2,0 kg/ha",10%
same,% damage,"[2]; 0,5 kg/ha",0%
same,% damage,"[2]; 1,0 kg/ha",0%
same,% damage,"[3]; 0,5 kg/ha",0%
same,% damage,"[3]; 1,0 kg/ha",0%
same,% damage,"[3]; 2,0 kg/ha",0%
same,% damage,"[4]; 0,5 kg/ha",0%
same,% damage,"[4]; 1,0 kg/ha",0%
same,% damage,"[4]; 2,0 kg/ha",0%
same,% damage,"[5]; 0,5 kg/ha",95%
same,% damage,"[5]; 1,0 kg/ha",100%
same,% damage,"[5]; 2,0 kg/ha",100%
same,% damage,"[6]; 0,5 kg/ha",70%
same,% damage,"[6]; 1,0 kg/ha",90%
same,% damage,"[6]; 2,0 kg/ha",100%
same,% damage,"[7]; 0,5 kg/ha",82%
same,% damage,"[7]; 1,0 kg/ha",95%
same,% damage,"[7]; 2,0 kg/ha",100%
COc1cc(C)n(CN(C(=O)CCl)c2c(C)cccc2C)n1,% damage,[8],20%
same,% damage,[9],95%
same,% damage,[10],95%
same,% damage,[11],95%
same,% damage,[12],5%
same,% damage,[13],100%
same,% damage,[14],98%
same,% damage,[15],85%
same,% damage,[16],90%
same,% damage,[17],0%
